The results in this text go back to publication PMC4669759 (Cell Death & Disease, 2015).

The subject of assay [1] is H929 cells. In words: Cytochrome c release in H929 cells. Format: cell-based, human. The conditions noted are these: intact H929 cells, within 4 h. As to the method:
(§1) Figure 4 Indole-2-carboxylic acids induce the hallmarks of apoptosis in MCL-1-dependent cancer cell line H929. (a) Digitonin-permeabilized H929 cells were treated with 10 μM BH3 peptides for 4 h, and intact H929 cells were incubated with increasing concentrations (0.1–10 μM) of A-1208746 for 4 h before assessing the levels of cytochrome c released into the cytosol. (b) H929 and RS4;11 cells were incubated with increasing concentrations of MCL-1 inhibitors or the BCL-2-selective inhibitor ABT-199 (venetoclax) for 48 h before determining cell viability. Cell killing IC50s are plotted with each value representing the mean of three separate experiments. […]
(§2) H929 cells were cultured in RPMI 1640 (Invitrogen Corp., Grand Island, NY, USA) supplemented with 10% fetal bovine serum (Invitrogen), 1% sodium pyruvate, 25 mM HEPES, 4.5 g/l glucose, and 1% penicillin/streptomycin (Sigma) and maintained in a humidified chamber at 37 °C containing 5% CO2. […] Following treatment, the hallmarks of apoptosis (activation of caspase-3/-7, mitochondrial membrane depolarization, and phosphatidylserine externalization) were measured using the IntelliCyt (Albuquerque, NM, USA) MultiCyt 4-Plex Apoptosis Screening Kit according to the manufacturer's instructions and read by flow cytometry using a HTFC screening system (IntelliCyt). […] Data were expressed as the percentage of singlet cells. […]

Assay [2] concerns H929 cells. Put plainly: Cell viability, H929 cells. The note with it: H929, 48 h. The assay is classed as cell-based, human. As to the method: as §1, with “experiments. Error bars represent the S.E.M. (c) H929 cells were incubated with increasing concentrations of MCL-1 inhibitors in the presence or absence of the pan-caspase inhibitor QVD (100 μM) for 4 h before assessing caspase-3/-7 activation, mitochondrial membrane polarization, and the exposure of phosphatidylserine.” for “experiments.”
(§3) Adherent cell lines were seeded at 50 000 cells per well in 96-well plates and treated for 48 h with compounds diluted in half-log steps starting at 30 μM and ending at 0.001 μM. […] Effects on proliferation and viability were determined using CellTiter-Glo reagent from Promega (Madison, WI, USA) according to the manufacturer's instructions. IC50 values were determined by non-linear regression analysis of the concentration response data.

In the next assay the test system is Bak-/- Bax-/- MEFs. In words: Cell viability, Bak-/- Bax-/- murine embryonic fibroblasts. The assay is classed as cell-based. The note with it: 48 h. As to the method: Supplementary Figure 4. […] Murine embryonic fibroblasts (MEFs) lacking Bak and Bax were treated with increasing concentrations of A-1155905, A-1208746, A-1210477, staurosporine or bortezomib for 48 h before assessing cell viability. Data represent the mean of triplicate experiments and error bars indicate the standard error of the mean.

In assay [3] the test system is H929 cells. In words: Hallmarks of apoptosis in H929 cells (caspase-3/-7, mitochondrial membrane depolarization, phosphatidylserine). The assay is classed as cell-based, human. The conditions noted are these: H929, 4 h. Here is the method:
as §1, §2

The test system of a further assay is RS4;11 cell line. Put plainly: Cell viability, RS4;11 cells. The assay is classed as cell-based. The conditions noted are these: RS4;11, 48 h. As to the method:
as §1, with “experiments. Error bars represent the S.E.M. (c) H929 cells were incubated with increasing concentrations of MCL-1 inhibitors in the presence or absence of the pan-caspase inhibitor QVD (100 μM) for 4 h before assessing caspase-3/-7 activation, mitochondrial membrane polarization, and the exposure of phosphatidylserine.” for “experiments.”
as §3

The next assay addresses T1, BCL-XL–BAD complexes (Homo sapiens, UniProt Q07817).
T1 construct: expressed in transfected cells; host or cells: T-REx-293, bicistronic expression module integrated at a single genomic site
In words: Live cell redistribution assay, eGFP-BCL-XL and mCherry-BAD, T-REx-293 cells. Format: cell-based. The conditions noted are these: 10 μM, 300 min. The text has this:
(§4) To further rule out potential artifacts associated with lysate detergents that can influence interactions between BCL-2 family proteins,[47] we employed a recently described real-time imaging method to assess the effects on BCL-2 family complexes in live cells.[48] Briefly, interacting pairs of BCL-2 family proteins are expressed as fluorescent fusion proteins at stoichiometric levels from a bicistronic expression module integrated into a single site of the genome in T-REx-293 cells. […]
(§5) Figure 3 A-1210477 inhibits MCL-1-BIM complexes in live cells. […] The decrease in amount of mCherry-BH3 protein localized to the mitochondria was quantified as a function of time as described in the Materials and Methods, normalized to DMSO control, and fitted to a single exponential decay. Each data point represents the mean change in intensity calculated from 10 fields of view, with error bars indicating the S.E.M. (b) T-REx-293 cells stably expressing eGFP-MCL-1(3B) and mCherry-BIMS(2A)ΔC were treated with 50 μM ABT-737 or increasing concentrations (1–25 μM) A-1210477 for 100 min. The decrease in amount of mCherry-BIMS(2A)ΔC localized to the mitochondria was quantified as in panel (a). (c) Representative fluorescence microscopic images of T-REx-293 cells stably expressing eGFP-BCL-2 family and interacting mCherry-BH3-only proteins before and after 300 min of treatment with 10 μM A-1210477 or (d) ABT-737. […]

Assay [4] deals with MCL-1(3B)–BIMS(2A)ΔC complexes. In words: Live cell redistribution assay, eGFP-MCL-1(3B) and mCherry-BIMS(2A)ΔC, T-REx-293 cells. The conditions noted are these: T-REx-293 cells expressing MCL-1(3B). The assay is classed as cell-based.
Description: To further rule out potential artifacts associated with lysate detergents that can influence interactions between BCL-2 family proteins,[47] we employed a recently described real-time imaging method to assess the effects on BCL-2 family complexes in live cells.[48] Briefly, interacting pairs of BCL-2 family proteins are expressed as fluorescent fusion proteins at stoichiometric levels from a bicistronic expression module integrated into a single site of the genome in T-REx-293 cells. Under basal conditions, both proteins localize primarily to the mitochondria, where the anti-apoptotic proteins (enhanced green fluorescent protein (eGFP)-BCL-2, eGFP-BCL-XL, or eGFP-MCL-1(3B)) sequester their pro-apoptotic counterparts (mCherry-BAD or mCherry-BIMS(2A)ΔC, the latter being a specific binder of MCL-1[48], [49]). Disruption of these complexes can be tracked by measuring the amount of mCherry-labeled BH3-only protein localized specifically to the mitochondria. […]
as §5
Experiments were carried out as detailed previously.[48] […] Therefore, the entire cell was identified with a single intensity threshold applied to the eGFP fluorescence, excluding areas identified as mitochondria. […]

A further assay has as its target T2, BCL-2–BAD complexes (Homo sapiens, UniProt P10415).
T2 construct: expressed in transfected cells; host or cells: T-REx-293, bicistronic expression module integrated at a single genomic site
In words: Live cell redistribution assay, eGFP-BCL-2 and mCherry-BAD, T-REx-293 cells. Format: cell-based. The conditions noted are these: 10 μM, 300 min.
Description: as §4, §5

For a further assay, the system named is EJ-1 cells. In words: Navitoclax / A-1210477 combination cell viability, EJ-1 cells. The assay is classed as cell-based. The note with it: EJ-1, up to 3–5 μM, 48 h. Here is the method:
(§6) Figure 6 A-1210477 synergizes with navitoclax to kill hematological and solid tumor cell lines. BxPC-3, EJ-1, H23, and OPM-2 cells were treated with increasing concentrations of navitoclax in the presence or absence of increasing concentrations of A-1210477 for 48 h before assessing cell viability. All data points represent the means of triplicate experiments, with error bars indicating the S.E.M. TEXT PRINTED IN THE PICTURE: A-1210477 + navitoclax: Bliss sum (BxPC-3): 716; Bliss sum (EJ-1): 464; Bliss sum (H23): 76; Bliss sum (OPM-2): 946 DOUBTS OF THE COPYIST ABOUT THIS PICTURE: The Bliss sums apply to the combination of A-1210477 and navitoclax. The picture prints the two names separately (legend heading and axis title), not as one joined label.
(§7) Adherent cell lines were seeded at 50 000 cells per well in 96-well plates and treated for 48 h with compounds diluted in half-log steps starting at 30 μM and ending at 0.001 μM. Multiple myeloma cell lines were seeded at 15 000–20 000 cells per well and treated similarly. Effects on proliferation and viability were determined using CellTiter-Glo reagent from Promega (Madison, WI, USA) according to the manufacturer's instructions. IC50 values were determined by non-linear regression analysis of the concentration response data.

For another assay, the system named is OPM-2 cells. Put plainly: Navitoclax / A-1210477 combination cell viability, OPM-2 cells. Format: cell-based. The conditions noted are these: OPM-2, up to 3–5 μM, 48 h. As to the method: as §6, §7
The next assay has as its system H23 cells. Put plainly: Navitoclax / A-1210477 combination cell viability, H23 cells. The assay is classed as cell-based, human. The note with it: H23, up to 3–5 μM, 48 h. As to the method:
as §6, §7

Another assay deals with BxPC-3 cells. In words: Navitoclax / A-1210477 combination cell viability, BxPC-3 cells. The note with it: BxPC-3, up to 3–5 μM, 48 h. Format: cell-based. As to the method:
as §6, §7

T1 sequence (Q07817 whole entry, one chain of several): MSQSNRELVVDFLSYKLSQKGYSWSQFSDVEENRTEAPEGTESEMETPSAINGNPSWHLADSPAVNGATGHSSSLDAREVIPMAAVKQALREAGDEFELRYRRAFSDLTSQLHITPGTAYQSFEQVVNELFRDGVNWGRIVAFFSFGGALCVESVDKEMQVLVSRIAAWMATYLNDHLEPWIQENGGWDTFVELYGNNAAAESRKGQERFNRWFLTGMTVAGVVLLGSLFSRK
T2 sequence (P10415 whole entry, one chain of several): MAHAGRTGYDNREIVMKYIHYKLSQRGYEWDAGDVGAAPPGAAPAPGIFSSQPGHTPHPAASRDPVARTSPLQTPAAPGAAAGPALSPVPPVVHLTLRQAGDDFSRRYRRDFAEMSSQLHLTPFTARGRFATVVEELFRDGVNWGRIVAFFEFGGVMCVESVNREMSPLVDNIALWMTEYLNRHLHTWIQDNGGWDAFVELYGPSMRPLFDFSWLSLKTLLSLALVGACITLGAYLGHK

Turning to `Cc1nn(C)c(COc2ccc(N3CCN(S(C)(=O)=O)CC3)cc2)c1-c1cccc2c(CCCOc3cccc4ccccc34)c(C(=O)O)n(CCN3CCOCC3)c12` [A-1208746], in the assay on H929 cells [1], the “lowest concentration at which cytochrome c was observed in cytosolic fractions” value was determined as 3 µM. The “cell killing IC50” value in the assay on H929 cells [2] is “low-μM range”. The “killing of Bak-/- Bax-/- MEFs” value in the assay on Bak-/- Bax-/- MEFs is “do not Kill”. Besides, the “induction of hallmarks of apoptosis (mitochondrial membrane depolarization, caspase-3/-7 activation, phosphatidylserine externalization)” value in the assay on H929 cells [3] is “induced the hallmarks of apoptosis”. In the assay with RS4;11 cell line, the “effect on cell viability” value is listed as “no effect”.
In the case of `CN(C)CC[C@H](CSc1ccccc1)Nc1ccc(S(=O)(=O)NC(=O)c2ccc(N3CCN(Cc4ccccc4-c4ccc(Cl)cc4)CC3)cc2)cc1[N+](=O)[O-]` [ABT-737, reference compound], the “redistribution of mCherry-BAD associated with BCL-XL” value on BCL-XL–BAD complexes was “induced the redistribution of mCherry-BAD”. In addition, in assay [4], the “redistribution of mCherry-BIMS(2A)ΔC from mitochondria” value is listed as “no effect”. The “redistribution of mCherry-BAD associated with BCL-2” value at BCL-2–BAD complexes was “induced the redistribution of mCherry-BAD”.
As for `CC1(C)CCC(c2ccc(Cl)cc2)=C(CN2CCN(c3ccc(C(=O)NS(=O)(=O)c4ccc(N[C@H](CCN5CCOCC5)CSc5ccccc5)c(S(=O)(=O)C(F)(F)F)c4)cc3)CC2)C1` [navitoclax, reference compound], the “single agent effect on cell viability” value in the assay with EJ-1 cells, with OPM-2 cells, with H23 cells and in the assay with BxPC-3 cells was “little or no effect” in each case.
